Laboratory results from patent publication US11046753B2, “Antibody composition and buffer system therefor” (INNOVA BIOSCIENCES LTD, priority 2013, dated 2021).
“Also recorded” adds a separate entry of the source.

How the values were obtained:
[1] = 25° C., cited from earlier work
[2] = Carbodiimide (EDC)-mediated conjugation of goat anti-rabbit IgG to carboxylated gold nanoparticles in presence of additive, read by lateral flow assay
Procedure: Molecules were tested initially at pH 5 in EDC-mediated reactions with carboxylated gold particles (InnovaCoat GOLD, Innova Biosciences). Potentially interesting molecules from this screening exercise were further evaluated in NHS ester reactions, isothiocyanate reactions and thiolation reactions involving iminothiolane. All of these reactions are widely used in the antibody conjugation field and all would be expected to suffer from interference in the presence of glycine.
Lateral flow test strips (4 mm wide) were prepared from nitrocellulose membrane (Millipore Hi Flow plus 90) striped with goat anti-rabbit IgG (test line) and biotin-BSA (control line). Strips were housed in plastic cartridges and samples of gold conjugate (80 ul) were added to the sample pad. Cartridges were allowed to stand for 30 min and then read using a ESE-Quant GOLD reader—QIAGEN. Each sample was spiked with a fixed amount of streptavidin-gold (Innova biosciences—Product code: 250-0200), which binds to the control line, to check that each test strip had run correctly and that test line data was valid.
10 μg of goat anti-rabbit IgG (GAR) was used per ml of coated 40 nm nanoparticles with carboxyl functionality (InnovaCoat GOLD, Innova Biosciences) at […] in the presence of additives at 50 mM final concentration. Typically reactions were set up with the following additions: 40 μl of 40 nm InnovaCoat (carboxylated) gold nanopartcles, were incubated 5 minutes with 4 μl 0.1 mg/ml GAR, 20 μl water, and 80 μl of 100 mM MES buffer containing 100 mM of additive, pH 5.0. Next, 16 μl of 1 mM EDC was added and after 10 min incubation at 22° C., 20 μl of 10×TBS/1% Tween20 and 20 μl of water was added to give 2 OD conjugate.
Gold conjugates were mixed when required with rabbit IgG ((final concentration 50 ng/ml) at 22° C. Conjugates were 0.2 OD final concentration (i.e. 1/10 dilution from stock conjugates). Samples were run in triplicate on lateral flow test strips as described in Example 1.

[3] = Lightning-Link phycoerythrin conjugation of goat anti-rabbit IgG in presence of tricine, fluorescence assay
Procedure: (§1) Black 96-well plates (Greiner Bio-One (code 655077)) were incubated with 50 ul rabbit IgG (1 ug/well) overnight at 4° C. The plates were blocked with TBS/0.1% BSA for 1 hour at room temperature and washed five times with TBS (wash buffer). Fluorescent antibody conjugates were serially diluted in TBS/0.1% BSA and 50 ul aliquots were added to wells in triplicate. After incubation at room temperature for 1 hour, the plate was washed five times and fluorescence emission was read in using a Tecan Infinite M200 plate reader with i-Control 1.4 software with the appropriate excitation/emission settings (fluorescein, 490 nm/535 nm; phycoeythrin, 535 nm/575 nm. Fluorescence data was plotted as a function of conjugate dilution. To compare results for additives tested in different experiments the data were transformed into a percentage of a control value (i.e. the signal for conjugate prepared in the absence of any test additive).
The method was as described in Example 4, except that the Goat anti-rabbit IgG was conjugated to the fluorescent protein phycoerythrin (PE) using a Lightning-Link PE conjugation kit (703-0005). Tricine has little effect on Lightning-Link PE conjugation reactions in the range of concentrations tested. In this case the conjugate prepared at the highest concentration of tricine (50 mM) gave a signal that was 91% of control value in the absence of additive.

[4] = Effect of additives on the thiolation reagent 2-iminothiolane (thiol release, DTNB, A405); conditions: 50 mM additive, pH 8.0, 30 minutes
Procedure: 20 μl of 2 mM 2-iminothiolane was added to each well and mixed quickly and the absorbance values were read at 405 nm every minute for 30 minutes using a Tecan Infinite M200 plate reader with i-Control 1.4 software. […] In control reaction, there is a steady linear increase in absorbance as the reagent is hydrolysed by water. […] The rising baseline can be attributed to the known sensitivity of 2-iminothiolane to hydrolysis at alkaline pH values.

[5] = NHS ester (fluorescein) conjugation of rabbit IgG in presence of additive, dye to protein ratio; conditions: 50 mM additive, sodium phosphate pH 8.0
Procedure: Conjugates were desalted on PD10 columns equilibrated in TBS buffer and absorbance values of the eluted solutions were determined at 280 nm and 495 nm. The ratio of moles dye to moles of protein for antibody dye conjugates in the presence of various additives is shown in FIG. 4.

[6] = Lightning-Link fluorescein conjugation of goat anti-rabbit IgG in presence of additive, fluorescence assay; conditions: 50 mM additive
Procedure: as §1
Reactions were carried out according to the manufacturer's standard protocol except that the additives were included at up to 50 mM concentration in conjugation reactions of Goat-anti-rabbit IgG using fluorescein Lightning-Link kit (product code 707-0010, Innova Biosciences, UK). Conjugates were tested according to the protocol described in Example 2.

[7] = Isothiocyanate (FITC) conjugation of rabbit IgG in presence of additive, dye to protein ratio; conditions: 50 mM additive, CHES pH 9.0
Procedure: Conjugates were desalted on PD10 columns (GE Healthcare) in TBS buffer and the absorbance values of the eluted solutions were determined at 280 nm and 495 nm. The ratio of moles dye to moles of protein for antibody dye conjugates in the presence of various additives is shown in FIG. 3.

Row | Molecule | pKa of the carboxyl (acid) group [1] | pKa (COOH) ([1]; Table 1) | % of Signal ([2]; additive 50 mM final, MES pH 5.0, EDC, lateral flow test line signal) [%] | interference in carbodiimide-mediated antibody-gold nanoparticle conjugation reaction ([2]; pH 5, EDC) | % of control ([3]; 50 mM tricine) [%] | interference in Lightning-Link phycoerythrin conjugation reaction ([3]; up to 50 mM) | release of thiols from 2-iminothiolane versus control [4] | ratio of moles dye to moles of protein versus control, fluorescein NHS ester [5] | % of Signal ([2]; pH 5) [%] | interference in carbodiimide-mediated antibody-gold nanoparticle conjugation reaction ([2]; pH 5) | interference in Lightning-Link fluorescein conjugation reaction [6] | ratio of moles dye to moles of protein versus control, FITC [7]
1 | O=C(O)CNC(CO)(CO)CO [Tricine, N-tris(hydroxymethyl)methylglycine] | ~2.3 | pKa1 = 2.3 | 105 | little or no effect | 91 | little effect; also recorded: modest degree of interference |  |  |  |  |  | 
2 | Glycine |  |  |  |  |  |  | rapid hydrolysis and ring opening; also recorded: reacts rapidly | substantial interference | 94 | no interference; also recorded: do not interfere; also recorded: does not | significant interference | significant interference
